Measurements as given in patent publication US20110224226A1, “COMPOSITIONS AND METHODS FOR INCREASING BLOOD PLATELET LEVELS IN HUMANS” (AKARX, Inc., priority 2006, published 2011).
Where two headings read alike, the source gives them in different places.

Tests used:
[1] = Example 2 multi-dose study: pharmacokinetics; format: in vivo, human; details: for Tmax at 14 days: read-out: mean time to maximum plasma concentration (Tmax); for Cmax at 14 days: read-out: mean maximum plasma concentration (Cmax)
Description: A double-blind, placebo-controlled, dose rising study was performed in healthy male and female volunteers. Each dose cohort received either placebo or active treatment as an oral suspension once daily for fourteen (14) consecutive days. The dose of study drug was prepared and administered as described in Example 1 above. The doses administered in this multiple dose study were based on the safety and tolerability assessment of the doses administered in Example 1.
Based on the results of Example 1, the starting dose was 3 mg. Based on the safety and tolerability results from Example 1, the dose was scheduled to be escalated to 10, 20, 50 and 100 mg per day for 14 consecutive days. Successive dose cohorts were not treated until the previous cohort completed 14 days of treatment and the safety follow-up visit on Day 21.

liver microsomal enzymes = test: metabolism by dog liver microsomal enzymes; format: in vitro ADME
[2] = both sexes, human, in vivo, oral, 3 mg once daily, Study Day 14, mean
[3] = both sexes, human, in vivo, oral, 10 mg once daily, Study Day 14, mean
[4] = both sexes, human, in vivo, oral, 20 mg once daily, Study Day 14, simulated data at steady-state

O=C(Nc1nc(-c2cc(Cl)cs2)c(N2CCN(C3CCCCC3)CC2)s1)c1cnc(N2CCC(C(=O)O)CC2)c(Cl)c1 [Formula I, 1-(3-chloro-5-{[4-(4-chlorothiophen-2-yl)-5-(4-cyclohexylpiperazin-1-yl)thiazol-2-yl]carbamoyl}pyridin-2-yl)piperadine-4-carboxylic acid]
AUC(0-t) ([1]; both sexes, human, in vivo, oral, 3 mg, 3 mg once daily, Study Day 1, mean, read-out: AUC0-last): 235 ng·h/mL | Tmax ([1]; both sexes, human, in vivo, oral, 3 mg, 3 mg once daily, Study Day 1, median): 6 h | AUC(0-t) ([1]; both sexes, human, in vivo, oral, 3 mg, 3 mg once daily, Study Day 14, mean, read-out: AUC0-last): 659 ng·h/mL | Tmax ([1]; both sexes, human, in vivo, oral, 3 mg, 3 mg once daily, Study Day 14, median): 6 h | AUC(0-t) ([1]; both sexes, human, in vivo, oral, 10 mg, 10 mg once daily, Study Day 1, mean, read-out: AUC0-last): 841 ng·h/mL | Tmax ([1]; both sexes, human, in vivo, oral, 10 mg, 10 mg once daily, Study Day 1, median): 6 h | AUC(0-t) ([1]; both sexes, human, in vivo, oral, 10 mg, 10 mg once daily, Study Day 14, mean, read-out: AUC0-last): 2360 ng·h/mL | Tmax ([1]; both sexes, human, in vivo, oral, 10 mg, 10 mg once daily, Study Day 14, median): 4.5 h | AUC(0-t) ([1]; both sexes, human, in vivo, oral, 20 mg, 20 mg once daily, Study Day 1, mean, read-out: AUC0-last): 1960 ng·h/mL | Tmax ([1]; both sexes, human, in vivo, oral, 20 mg, 20 mg once daily, Study Day 1, median): 6 h | Tmax ([1]; both sexes, human, in vivo, oral, 20 mg, 20 mg once daily, Study Day 14, median, simulated data at steady-state): 6 h | AUC(0-t) ([1]; both sexes, human, in vivo, oral, 20 mg, 20 mg once daily, Study Day 14, simulated data at steady-state, read-out: AUC0-last): 3610 ng·h/mL | AUC(0-inf) [1, 2]: 804 ng·h/mL | half-life [1, 2]: 18.2 h | Cmax ([1]; both sexes, human, in vivo, oral, 3 mg once daily, Study Day 14, mean, read-out: Cmax, ss): 25.6 ng/mL | AUC(0-inf) [1, 3]: 2870 ng·h/mL | half-life [1, 3]: 18.1 h | Cmax ([1]; both sexes, human, in vivo, oral, 10 mg once daily, Study Day 14, mean, read-out: Cmax, ss): 94.1 ng/mL | AUC(0-inf) [1, 4]: 7150 ng·h/mL | half-life [1, 4]: 20.8 h | Cmax ([1]; both sexes, human, in vivo, oral, 20 mg once daily, Study Day 14, simulated data at steady-state, read-out: Cmax, ss): 205 ng/mL | half-life at 14 days ([1]; both sexes, human, in vivo, oral, multi-dose study, independent of dose): 18 to 21 h | Cmax ([1]; both sexes, human, in vivo, 3 mg once daily oral suspension, Study Day 1, mean, read-out: Cmax): 14.8 ng/mL | Cmax ([1]; both sexes, human, in vivo, 10 mg once daily oral suspension, Study Day 1, mean, read-out: Cmax): 53.2 ng/mL | Cmax ([1]; both sexes, human, in vivo, 20 mg once daily oral suspension, Study Day 1, mean, read-out: Cmax): 121 ng/mL | AUC(0-t) ([1]; both sexes, human, plasma, oral, 3 mg, 3 mg dose administered over about fourteen (14) days, human, read-out: mean AUC0-last): ~659 ng·h/mL | Tmax at 14 days ([1]; both sexes, human, plasma, oral, 3 mg, 3 mg dose administered over about fourteen (14) days, human): ~6 h | AUC(0-t) ([1]; both sexes, human, plasma, oral, 10 mg, 10 mg dose administered over about fourteen (14) days, human, read-out: mean AUC0-last): ~2360 ng·h/mL | Tmax at 14 days ([1]; both sexes, human, plasma, oral, 10 mg, 10 mg dose administered over about fourteen (14) days, human): ~4.4 h | AUC(0-t) ([1]; both sexes, human, plasma, oral, 20 mg, 20 mg dose administered over about fourteen (14) days, human, Table 3: simulated data at steady-state, read-out: mean AUC0-last): ~3610 ng·h/mL | Tmax at 14 days ([1]; both sexes, human, plasma, oral, 20 mg, 20 mg dose administered over about fourteen (14) days, human, Table 3: simulated data at steady-state): ~5.5 h | Cmax at 14 days ([1]; both sexes, plasma, oral, 3 mg dose administered over about fourteen (14) days, human): ~25 ng/mL | Cmax at 14 days ([1]; both sexes, plasma, oral, 10 mg dose administered over about fourteen (14) days, human): ~94 ng/mL | Cmax at 14 days ([1]; both sexes, plasma, oral, 20 mg dose administered over about fourteen (14) days, human, Table 3: simulated data at steady-state): ~204 ng/mL | dose proportionality of Cmax and AUC ([1]; following single and repeat administration, 3 mg to 20 mg): increased proportionally with respect to dose | metabolism by liver microsomal enzymes (liver microsomal enzymes): does not appear to be metabolized
